{"source": "ChEMBL document CHEMBL4334449", "about": "“Jorunnamycin A from Xestospongia sp. Suppresses Epithelial to Mesenchymal Transition and Sensitizes Anoikis in Human Lung Cancer Cells” (J Nat Prod, 2019)", "key": {"NCI-H460 [1]": {"test_system": "NCI-H460", "experiment": "Induction of apoptosis in human H460 cells assessed as accumulation of necrotic cells at 0.05 to 1 uM after 24 hrs by Hoechst 33342/propidium iodide staining based fluorescent microscopic method", "assay_type": "functional, cell-based"}, "NCI-H460 [2]": {"test_system": "NCI-H460", "experiment": "Antiproliferative activity against human H460 cells assessed as reduction in cell viability at 0.1 to 0.5 uM after at 72 hrs by crystal violet staining assay", "assay_type": "functional, cell-based"}, "NCI-H460 [3]": {"test_system": "NCI-H460", "experiment": "Antiproliferative activity against human H460 cells assessed as reduction in cell viability at 0.05 to 0.5 uM after 24 hrs by MTT assay", "assay_type": "functional, cell-based"}, "NCI-H460 [4]": {"test_system": "NCI-H460", "experiment": "Induction of apoptosis in human H460 cells at 1 uM after 24 hrs by Hoechst 33342/propidium iodide staining based fluorescent microscopic method", "assay_type": "functional, cell-based"}, "NCI-H460 [5]": {"test_system": "NCI-H460", "experiment": "Induction of apoptosis in human H460 cells at 0.05 to 0.5 uM after 24 hrs by Hoechst 33342/propidium iodide staining based fluorescent microscopic method", "assay_type": "functional, cell-based"}, "NCI-H460 [6]": {"test_system": "NCI-H460", "experiment": "Antiproliferative activity against human H460 cells under detachment conditions assessed as reduction in cell viability at 0.05 uM after 6 hrs by XTT assay", "assay_type": "functional, cell-based"}, "NCI-H460 [7]": {"test_system": "NCI-H460", "experiment": "Antiproliferative activity against human H460 cells under detachment conditions assessed as reduction in cell viability at 0.1 to 0.5 uM after 3 hrs by XTT assay", "assay_type": "functional, cell-based"}, "NCI-H460 [8]": {"test_system": "NCI-H460", "experiment": "Induction of apoptosis in human H460 cells under detachment conditions at 0.05 to 0.5 uM after 24 hrs by Hoechst 33342/propidium iodide staining based fluorescent microscopic method", "assay_type": "functional, cell-based"}, "NCI-H460 [9]": {"test_system": "NCI-H460", "experiment": "Induction of apoptosis in human H460 cells under detachment conditions assessed as accumulation of necrotic cells at 0.05 to 0.5 uM after 24 hrs by Hoechst 33342/propidium iodide staining based fluorescent microscopic method", "assay_type": "functional, cell-based"}, "NCI-H460 [10]": {"test_system": "NCI-H460", "experiment": "Induction of anoikis in human H460 cells under detachment conditions at 0.05 to 0.5 uM after 24 hrs by Hoechst 33342/propidium iodide staining based fluorescent microscopic method", "assay_type": "functional, cell-based"}, "NCI-H460 [11]": {"test_system": "NCI-H460", "experiment": "Induction of apoptosis in human H460 cells under detachment conditions assessed as viable cells at 0.5 uM after 24 hrs by Annexin V-FITC/propidium iodide staining-based flow cytometric analysis (reference value: 60.43%)", "assay_type": "functional"}, "NCI-H460 [12]": {"test_system": "NCI-H460", "experiment": "Induction of apoptosis in human H460 cells under detachment conditions assessed as early apoptotic cells at 0.5 uM after 24 hrs by Annexin V-FITC/propidium iodide staining-based flow cytometric analysis (reference value: 22.55%)", "assay_type": "functional"}, "NCI-H460 [13]": {"test_system": "NCI-H460", "experiment": "Induction of apoptosis in human H460 cells under detachment conditions assessed as late apoptotic cells at 0.5 uM after 24 hrs by Annexin V-FITC/propidium iodide staining-based flow cytometric analysis (reference value: 15.44%)", "assay_type": "functional"}, "NCI-H460 [14]": {"test_system": "NCI-H460", "experiment": "Induction of apoptosis in human H460 cells under detachment conditions assessed as necrotic cells at 0.5 uM after 24 hrs by Annexin V-FITC/propidium iodide staining-based flow cytometric analysis (reference value: 1.58%)", "assay_type": "functional"}, "NCI-H460 [15]": {"test_system": "NCI-H460", "experiment": "Induction of anoikis in human H460 cells under detachment conditions assessed as fold change at 0.5 uM after 24 hrs by Annexin V-FITC/propidium iodide staining-based flow cytometric analysis", "assay_type": "functional"}, "NCI-H460 [16]": {"test_system": "NCI-H460", "experiment": "Inhibition of colony formation in human H460 cells under detachment conditions assessed as reduction in number of colonies at 0.1 to 0.5 uM after 14 days by microscopic method", "assay_type": "functional, cell-based"}, "NCI-H460 [17]": {"test_system": "NCI-H460", "experiment": "Inhibition of colony formation in human H460 cells under detachment conditions assessed as reduction in size of colonies at 0.1 to 0.5 uM after 14 days by microscopic method", "assay_type": "functional, cell-based"}, "NCI-H460 [18]": {"test_system": "NCI-H460", "experiment": "Induction of anoikis in human H460 cells under detachment conditions assessed as decrease in MCL-1 level at 0.05 to 0.5 uM after 12 hrs by Western blot analysis", "assay_type": "functional, cell-based"}, "NCI-H460 [19]": {"test_system": "NCI-H460", "experiment": "Induction of anoikis in human H460 cells under detachment conditions assessed as decrease in BCL-2 level at 0.1 to 0.5 uM after 12 hrs by Western blot analysis", "assay_type": "functional, cell-based"}, "NCI-H460 [20]": {"test_system": "NCI-H460", "experiment": "Induction of anoikis in human H460 cells under detachment conditions assessed as increase in Bax level at 0.05 to 0.5 uM after 12 hrs by Western blot analysis", "assay_type": "functional, cell-based"}, "NCI-H460 [21]": {"test_system": "NCI-H460", "experiment": "Induction of anoikis in human H460 cells under detachment conditions after 12 hrs by Western blot analysis", "assay_type": "functional, cell-based"}, "NCI-H460 [22]": {"test_system": "NCI-H460", "experiment": "Effect on total AKT protein level in human H460 cells under detachment conditions at 0.05 to 0.5 uM after 12 hrs by Western blot analysis", "assay_type": "ADME, cell-based", "details": "nci-h460, 12 h"}, "NCI-H460 [23]": {"test_system": "NCI-H460", "experiment": "Effect on total ERK protein level in human H460 cells under detachment conditions at 0.05 to 0.5 uM after 12 hrs by Western blot analysis", "assay_type": "ADME, cell-based", "details": "nci-h460, 12 h"}, "[24]": {"biological_target": "Serine/threonine-protein kinase AKT (Homo sapiens) (UniProt P31751+Q9Y243+P31749)", "sequence (P31749 whole entry, looked up)": "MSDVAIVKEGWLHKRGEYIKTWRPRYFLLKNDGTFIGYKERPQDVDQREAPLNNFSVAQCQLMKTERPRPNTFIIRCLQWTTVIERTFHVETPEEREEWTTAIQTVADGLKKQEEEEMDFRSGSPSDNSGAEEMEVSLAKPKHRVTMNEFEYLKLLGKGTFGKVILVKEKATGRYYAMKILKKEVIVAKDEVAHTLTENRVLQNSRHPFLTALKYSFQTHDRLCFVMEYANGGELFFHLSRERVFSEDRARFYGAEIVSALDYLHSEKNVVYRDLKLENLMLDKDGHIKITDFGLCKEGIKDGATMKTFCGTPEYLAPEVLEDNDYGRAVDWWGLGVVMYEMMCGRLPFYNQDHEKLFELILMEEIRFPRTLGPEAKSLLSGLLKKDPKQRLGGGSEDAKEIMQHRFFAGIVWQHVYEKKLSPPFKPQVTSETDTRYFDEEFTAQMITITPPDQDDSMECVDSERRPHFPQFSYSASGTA", "sequence (P31751 whole entry, looked up)": "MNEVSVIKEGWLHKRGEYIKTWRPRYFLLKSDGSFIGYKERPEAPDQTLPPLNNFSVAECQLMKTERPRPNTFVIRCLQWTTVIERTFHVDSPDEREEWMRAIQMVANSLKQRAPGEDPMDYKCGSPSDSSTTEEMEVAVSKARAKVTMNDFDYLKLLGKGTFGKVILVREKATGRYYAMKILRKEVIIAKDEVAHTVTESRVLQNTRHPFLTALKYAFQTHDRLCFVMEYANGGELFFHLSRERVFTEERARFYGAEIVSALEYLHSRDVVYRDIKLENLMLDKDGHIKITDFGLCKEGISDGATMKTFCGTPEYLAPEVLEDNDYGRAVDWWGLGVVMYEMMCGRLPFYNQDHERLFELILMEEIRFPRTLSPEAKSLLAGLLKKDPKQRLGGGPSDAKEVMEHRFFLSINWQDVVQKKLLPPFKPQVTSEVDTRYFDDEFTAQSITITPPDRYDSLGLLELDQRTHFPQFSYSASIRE", "sequence (Q9Y243 whole entry, looked up)": "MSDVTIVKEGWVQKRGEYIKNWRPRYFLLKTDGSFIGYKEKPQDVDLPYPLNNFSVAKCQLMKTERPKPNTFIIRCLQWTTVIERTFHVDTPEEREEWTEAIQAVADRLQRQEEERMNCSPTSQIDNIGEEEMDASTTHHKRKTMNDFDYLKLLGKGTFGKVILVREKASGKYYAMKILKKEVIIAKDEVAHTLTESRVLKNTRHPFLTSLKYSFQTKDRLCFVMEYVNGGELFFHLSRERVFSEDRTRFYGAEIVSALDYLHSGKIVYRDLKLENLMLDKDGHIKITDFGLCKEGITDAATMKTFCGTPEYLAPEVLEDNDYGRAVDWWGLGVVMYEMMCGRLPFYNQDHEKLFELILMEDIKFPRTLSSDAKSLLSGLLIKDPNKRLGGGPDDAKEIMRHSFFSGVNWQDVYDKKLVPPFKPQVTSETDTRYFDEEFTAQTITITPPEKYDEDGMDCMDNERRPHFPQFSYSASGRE", "experiment": "Inhibition of AKT phosphorylation in human H460 cells under detachment conditions at 0.05 to 0.5 uM after 12 hrs by Western blot analysis", "assay_type": "cell-based"}, "Homo sapiens": {"species": "Homo sapiens", "experiment": "Inhibition of ERK phosphorylation in human H460 cells under detachment conditions at 0.05 to 0.5 uM after 12 hrs by Western blot analysis", "assay_type": "cell-based"}, "NCI-H460 [25]": {"test_system": "NCI-H460", "experiment": "Down regulation of caveolin-1 human H460 cells under detachment conditions at 0.05 to 0.5 uM after 12 hrs by Western blot analysis", "assay_type": "functional, cell-based"}, "NCI-H460 [26]": {"test_system": "NCI-H460", "experiment": "Induction of anoikis in human H460 cells […] under detachment conditions assessed as effect on P53 level at 0.05 to 0.5 uM after 12 hrs by Western blot analysis", "assay_type": "functional, cell-based"}, "NCI-H460 [27]": {"test_system": "NCI-H460", "experiment": "Inhibition of epithelial-mesenchymal transition in human H460 cells under detachment conditions assessed as increase in E-cadherin protein level 0.05 to 0.5 uM after 12 hrs by Western blot analysis", "assay_type": "functional, cell-based"}, "NCI-H460 [28]": {"test_system": "NCI-H460", "experiment": "Inhibition of epithelial-mesenchymal transition in human H460 cells under detachment conditions assessed as decrease in snail protein level 0.05 to 0.5 uM after 12 hrs by Western blot analysis", "assay_type": "functional, cell-based"}}, "note": "The source made the active and inactive calls. No cut-off for these calls is given here."}
{"smiles": "COC1=C(C)C(=O)C2=C(C1=O)[C@@H]1[C@@H]3CC4=C(C(=O)C(OC)=C(C)C4=O)[C@H](CO)N3[C@@H](C#N)[C@H](C2)N1C", "note": "[JOURNNAMYCIN A]", "values": [{"measurement": "Activity", "setting": "NCI-H460 [1]", "value": "inactive"}, {"measurement": "Activity", "setting": "NCI-H460 [2]", "value": "Active"}, {"measurement": "Activity", "setting": "NCI-H460 [3]", "value": "inactive"}, {"measurement": "Activity", "setting": "NCI-H460 [4]", "value": "Active"}, {"measurement": "Activity", "setting": "NCI-H460 [5]", "value": "inactive"}, {"measurement": "Activity", "setting": "NCI-H460 [6]", "value": "Active"}, {"measurement": "Activity", "setting": "NCI-H460 [7]", "value": "Active"}, {"measurement": "Activity", "setting": "NCI-H460 [8]", "value": "Active"}, {"measurement": "Activity", "setting": "NCI-H460 [9]", "value": "inactive"}, {"measurement": "Activity", "setting": "NCI-H460 [10]", "value": "Active"}, {"measurement": "fold change (FC)", "setting": "NCI-H460 [11]", "value": 2}, {"measurement": "Activity", "setting": "NCI-H460 [12]", "value": 26.4, "unit": "%"}, {"measurement": "Activity", "setting": "NCI-H460 [13]", "value": 48.01, "unit": "%"}, {"measurement": "Activity", "setting": "NCI-H460 [14]", "value": 24.2, "unit": "%"}, {"measurement": "Activity", "setting": "NCI-H460 [15]", "value": 1.39, "unit": "%"}, {"measurement": "inhibition", "setting": "NCI-H460 [16]", "value": "Active"}, {"measurement": "inhibition", "setting": "NCI-H460 [17]", "value": "Active"}, {"measurement": "Activity", "setting": "NCI-H460 [18]", "value": "Active"}, {"measurement": "Activity", "setting": "NCI-H460 [19]", "value": "Active"}, {"measurement": "Activity", "setting": "NCI-H460 [20]", "value": "Active"}, {"measurement": "Activity", "setting": "NCI-H460 [21]", "value": "Dose-dependent effect"}, {"measurement": "Activity", "setting": "NCI-H460 [22]", "value": "Non-Toxic"}, {"measurement": "Activity", "setting": "NCI-H460 [23]", "value": "Non-Toxic"}, {"measurement": "inhibition", "setting": "[24]", "value": "Active"}, {"measurement": "inhibition", "setting": "Homo sapiens", "value": "Active"}, {"measurement": "Activity", "setting": "NCI-H460 [25]", "value": "Active"}, {"measurement": "Activity", "setting": "NCI-H460 [26]", "value": "inactive"}, {"measurement": "inhibition", "setting": "NCI-H460 [27]", "value": "Active"}, {"measurement": "inhibition", "setting": "NCI-H460 [28]", "value": "Active"}]}
